Data published in ChEMBL document CHEMBL1201862, “PubChem BioAssay data set” (2004).
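48-hour exposure; five concentrations; linearly interpolated endpoints. GI50 marks 50% less growth.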 Active and inactive are the calls of the source. Cut-off read from the data, not from the text of the source: active = GI50 up to about 1.1 µM and inactive = higher.

Key:
Assay in all cases: inhibition of tumour cell growth, NCI panel, 48 h
A549 = test system: A549
DMS-114 = test system: DMS-114
DMS-273 = test system: DMS-273
HCT-15 = test system: HCT-15
HL-60 = test system: HL-60
HOP-18 = test system: HOP-18
K562 = test system: K562
M19-MEL = test system: M19-MEL
MOLT-4 = test system: MOLT-4
NCI-H226 = test system: NCI-H226
OVCAR-4 = test system: OVCAR-4
SF-539 = test system: SF-539
UACC-62 = test system: UACC-62
SNB-78 = test system: SNB-78
SR = test system: SR
XF498 = test system: XF498
DU-145 = test system: DU-145
MDA-MB-231 = test system: MDA-MB-231
NCI/ADR-RES = test system: NCI/ADR-RES
PC-3 = test system: PC-3

Structure (SMILES) | GI50 (A549) | GI50 (DMS-114) | GI50 (DMS-273) | GI50 (HCT-15) | GI50 (HL-60) | GI50 (HOP-18) | GI50 (K562) | GI50 (M19-MEL) | GI50 (MOLT-4) | GI50 (NCI-H226) | GI50 (OVCAR-4) | GI50 (SF-539) | GI50 (UACC-62) | GI50 (SNB-78) | GI50 (SR) | GI50 (XF498) | GI50 (DU-145) | GI50 (MDA-MB-231) | GI50 (NCI/ADR-RES) | GI50 (PC-3)
CC(=O)NNc1nc(C)c(C(/C=C/c2ccc(Cl)cc2)=N/NC(=O)C[N+](C)(C)C)s1 | > 100 µM (inactive) | > 100 µM (inactive) | > 100 µM (inactive) | > 100 µM | > 100 µM (inactive) | > 100 µM (inactive) | > 100 µM (inactive) | > 100 µM (inactive) | > 100 µM (inactive) | > 100 µM (inactive) | > 100 µM (inactive) | > 100 µM (inactive) | > 100 µM (inactive) |  |  |  |  |  |  | 
Nc1nc(N)c(-c2ccccc2)c(C(=O)Nc2nccs2)n1 | > 100 µM (inactive) | > 100 µM (inactive) |  | > 100 µM | > 100 µM (inactive) | > 100 µM (inactive) | > 100 µM (inactive) | > 100 µM (inactive) | > 100 µM (inactive) | > 100 µM (inactive) | > 100 µM (inactive) | > 100 µM (inactive) | > 100 µM (inactive) | > 100 µM (inactive) |  |  |  |  |  | 
CC1OC(n2ccc3ccc([N+](=O)[O-])cc32)C(O)C(O)C1O (stereo not drawn) | > 100 µM (inactive) | > 100 µM (inactive) | > 100 µM (inactive) | > 100 µM | > 100 µM (inactive) |  | > 100 µM (inactive) | > 100 µM (inactive) | > 100 µM (inactive) | > 100 µM (inactive) | > 100 µM (inactive) | > 100 µM (inactive) | > 100 µM (inactive) | > 100 µM (inactive) | > 100 µM (inactive) | > 100 µM (inactive) |  |  |  | 
CC1=CCC[C@@]2(C)C(CC[C@@H]2C(C)/C=C/C(C)C)c2ccc(cc2C(=O)O)C[C@@H](O)CC1 (stereo partly drawn) | 6.14 µM (inactive) | 18.5 µM (inactive) | 14.4 µM (inactive) | 5.07 µM | 9.79 µM (inactive) |  | 9.89 µM (inactive) | 12.7 µM (inactive) | 11.6 µM (inactive) | 18.5 µM (inactive) | 12.1 µM (inactive) | 8.55 µM (inactive) | 10.9 µM (inactive) | 16.1 µM (inactive) | 13.5 µM (inactive) |  |  |  |  | 
CN(C)CCNC(=O)c1cccc2nc3c(Cl)cccc3nc12 | 4.33 µM (inactive) | 3.57 µM (inactive) | 5.09 µM (inactive) | 4.08 µM | 6.43 µM (inactive) | > 30.7 µM (inactive) | 2.31 µM (inactive) | 2.96 µM (inactive) | 2.38 µM (inactive) | 3.55 µM (inactive) | 6.31 µM (inactive) | 4.75 µM (inactive) | 2.02 µM (inactive) |  | 1.51 µM (inactive) | 2.92 µM (inactive) |  |  |  | 
O=C(/C=C\c1cccc2ccccc12)c1ccc(Cl)cc1Cl | 62.1 µM (inactive) | 14.8 µM (inactive) | 18.8 µM (inactive) | 13.7 µM | 18.2 µM (inactive) | 22.8 µM (inactive) | 18.9 µM (inactive) | 19.1 µM (inactive) | 28.5 µM (inactive) | > 100 µM (inactive) | 43.6 µM (inactive) | 25.8 µM (inactive) | 16.7 µM (inactive) | 20.3 µM (inactive) |  |  |  |  |  | 
N#CC(C#N)=C(N)/C(C#N)=C/c1ccc(O)c(O)c1 | > 100 µM (inactive) | 25.1 µM (inactive) | 59.2 µM (inactive) | 44.5 µM | 22.6 µM (inactive) |  | 48.8 µM (inactive) | > 100 µM (inactive) | 47.9 µM (inactive) | 46.3 µM (inactive) | 44.8 µM (inactive) | > 100 µM (inactive) | 49 µM (inactive) | > 100 µM (inactive) | 29.3 µM (inactive) | > 100 µM (inactive) | > 100 µM (inactive) | > 100 µM (inactive) | 41.5 µM (inactive) | 37.7 µM (inactive)
